# US4806680A, “3-halovinylglycine antibacterial agents” (Merck & Co., Inc., priority 1987, dated 1989)
# Where a name gives a salt, the structure may show the parent alone.
# Legend:
# [1] = system: S. aureus; test: Agar dilution assay (M.I.C.); type: cell-based, Staphylococcus aureus; conditions: for MIC: Staphylococcus aureus, read-out: minimum inhibitory concentration (M.I.C.); for antibacterial activity (in words): vs S. aureus
# Procedure: (§1) Representative 3-halovinylglycines and amino acid conjugates were tested for antibacterial activity by an agar dilution assay [being an modification of the antagonist-free-medium assay described in: Antimicrobial Agents and Chemotherapy, May 1979, pp 677-683 and pp 684-695]. Compounds assayed include (L) and (D)-3-chlorovinylglycine (HCL salts), (L) norvalyl-(L), (D), and (DL)-3 chlorovinylglycine (CF3 COOH salts), and (L) norvalyl-(L), (D), and (DL)-3 fluorovinylglycine (CF3 COOH) salts.
# [2] = system: E. coli DC2; test: Agar dilution assay (M.I.C.); type: cell-based; conditions: Escherichia coli, read-out: minimum inhibitory concentration (M.I.C.)
# Procedure: as §1
# [3] = system: cystathionine synthetase; conditions: synthesis of cystathionine from serine; cited from earlier work
# [4] = system: E. Coli alanine racemase; test: Inhibition of E. coli alanine racemase; type: biochemical
# [5] = system: Strep. faecalis; test: Agar dilution assay (M.I.C.); type: cell-based, Streptococcus faecalis; conditions: vs Strep. faecalis
# Procedure: as §1
# [6] = system: E. coli; test: Agar dilution assay (M.I.C.); type: cell-based, Escherichia coli; conditions: vs E. coli
# Procedure: as §1
# [7] = system: K. pneumoniae; test: Agar dilution assay (M.I.C.); type: cell-based, Klebsiella pneumoniae; conditions: vs K. pneumoniae
# Procedure: as §1
# [8] = system: eleven representative strains of pathogenic bacteria; test: Agar dilution assay, panel of eleven strains; type: cell-based; conditions: for number of test species against which activity is shown: M.I.C. equal to or less than 256 indicates activity, 11 test species
# Procedure: as §1
# The antibacterial activity of the representative structure I compounds versus eleven representative strains of pathogenic bacteria is shown in the following Table.
# [9] = system: Sal. typhimurium; test: Agar dilution assay (M.I.C.); type: cell-based; conditions: Salmonella enterica, read-out: minimum inhibitory concentration (M.I.C.)
# Procedure: as §1
# [10] = system: E. coli TEM 2^+; test: Agar dilution assay (M.I.C.); type: cell-based; conditions: Escherichia coli, read-out: minimum inhibitory concentration (M.I.C.)
# Procedure: as §1
smiles,measurement,setting,value
"C=C(Cl)C(NC(=O)[C@@H](N)CCC)C(=O)O (mixture of isomers) [(L)-NVA--(DL)-Cl--vinylgly, L-norvalyl-D,L-3-chlorovinylglycine]",MIC,[1],≤ 250 µg/mL
same,MIC,[2],4000 µg/mL
"C=C(Cl)C(N)C(=O)O (racemic) [racemic 3-chlorovinylglycine, 2-amino-3-chloro-3-butenoic acid]",inactivation of cystathionine synthetase (in words),[3],not being an inactivator
"C=C(Cl)[C@@H](N)C(=O)O [(D)Cl vinylgly, (D)-3-Chlorovinylglycine hydrochloride]",inhibition of alanine racemase (in words),[4],potent irreversible inhibitor
same,antibacterial activity (in words),[5],exhibits antibacterial activity
same,antibacterial activity (in words),[1],exhibits antibacterial activity
same,antibacterial activity (in words),[6],exhibits antibacterial activity
same,antibacterial activity (in words),[7],exhibits antibacterial activity
"C=C(Cl)[C@@H](NC(=O)[C@@H](N)CCC)C(=O)O [(L)-NVA--(D)-Cl--vinylgly, L-norvalyl-D-3-chlorovinylglycine]",MIC,[2],32000 µg/mL
"C=C(F)C(NC(=O)[C@@H](N)CCC)C(=O)O (stereo partly drawn) [(L)-NVA--(DL)-F--vinylgly, (L,DL)-Norvalyl-3-fluorovinylglycine trifluoracetate]",MIC,[1],1000 µg/mL
same,MIC,[2],4000 µg/mL
"C=C(Cl)[C@H](NC(=O)[C@@H](N)CCC)C(=O)O [(L)-NVA--(L)-Cl--vinylgly, (L,L)-Norvalyl 3-chlorovinylglycine trifluoroacetate]",number of test species against which activity is shown,[8],8 of 11
same,MIC,[2],1000 µg/mL
same,MIC,[9],64000 µg/mL
same,MIC,[10],8000 µg/mL
"C=C(F)[C@H](NC(=O)[C@@H](N)CCC)C(=O)O [(L)-NVA--(L)-F--vinylgly, (L,L)-Norvalyl-3-fluorovinylglycine trifluoroacetate]",relative activity in the antibacterial agar dilution assay,"[8]; (L,L) versus (L,D) diastereomer",more active
same,number of test species against which activity is shown,[8],9 of 11
same,MIC,[2],2000 µg/mL
same,MIC,[10],16000 µg/mL
"C=C(Cl)[C@H](N)C(=O)O [(L)Cl vinylgly, L-3-chlorovinylglycine]",inhibition of alanine racemase (in words),[4],inhibits
same,antibacterial activity (in words),[5],exhibits antibacterial activity
same,antibacterial activity (in words),[1],exhibits antibacterial activity
same,antibacterial activity (in words),[7],exhibits antibacterial activity
